Measurements taken from US12071425B2 (Genentech, Inc., priority 2018, dated 2024).
Counter-ions that a name gives are not always drawn.

Target: kinase domain of IRE1 alpha (His-tagged kinase dead construct KR, AA G547-L977, D688N) (Homo sapiens (Human), UniProt O75460, D688N)
Test: IRE1α TR-FRET competition binding assay
Conditions: competition with Kinase Tracer 236, 0.1 μM; one hour at room temperature
Description: To determine the affinity of compound binding to the kinase domain of IRE1 alpha, a Time Resolved Fluorescence Resonance Energy Transfer (TR-FRET) competition assay was used. A His-tagged IRE1 alpha kinase dead construct containing the kinase and RNase domains (KR, AA G547-L977, D688N) was expressed in Sf9 insect cells. The purified protein (final concentration 0.006 μM micromolar) was pre-incubated with anti-His Europium labeled antibody (Life Technologies PV5596, final concentration 0.002 μM micromolar) for one hour at 4° C. in 1X TR-FRET Assay Buffer (50 mM HEPES, pH 7.5.10 mM MgCl2, 0.083 mM Brij 35, 1 mM DTT, and 0.1% bovine gamma globulin) prior to addition to test compounds. A fluorescent labeled probe based on an ATP competitive inhibitor (Kinase Tracer 236, Life Technologies PV5592) is added to a final concentration of 0.1 μM (micromolar). Reactions were carried out for one hour at room temperature in a final volume of 20 μL (microliter) in 384 well white ProxiPlates (Perkin Elmer 6008289). Binding of the tracer to the IRE1 protein alpha was detected in an Envision instrument (PerkinElmer) equipped with a TRF laser option and a LANCE/Delfia Dual/Bias D400/D630 mirror (Ex 347 nm, 1st Em 665 nm, 2nd Em 615 nm).
Exemplary compounds in Table A1 were tested in the IRE1α binding assays.

kinase domain of IRE1 alpha (His-tagged kinase dead construct KR, AA G547-L977, D688N), sequence (O75460 547-977 D688N): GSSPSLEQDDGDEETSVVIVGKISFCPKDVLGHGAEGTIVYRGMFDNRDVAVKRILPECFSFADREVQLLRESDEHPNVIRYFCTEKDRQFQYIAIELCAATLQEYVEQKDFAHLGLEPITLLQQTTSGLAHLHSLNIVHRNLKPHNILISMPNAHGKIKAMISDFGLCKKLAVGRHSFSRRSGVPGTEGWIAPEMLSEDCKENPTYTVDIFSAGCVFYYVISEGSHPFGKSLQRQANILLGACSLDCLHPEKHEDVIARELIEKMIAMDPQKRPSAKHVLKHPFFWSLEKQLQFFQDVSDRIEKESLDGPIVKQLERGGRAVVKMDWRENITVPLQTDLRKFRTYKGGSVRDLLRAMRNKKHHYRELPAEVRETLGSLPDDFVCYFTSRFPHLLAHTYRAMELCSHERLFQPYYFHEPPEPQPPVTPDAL

**Q.** CC(F)C1CNCC(Nc2nccc(-c3cccnc3Oc3cc(F)c(NS(=O)(=O)Cc4ccccc4)c(F)c3F)n2)C1 (single isomer, unassigned) [Compound 344, 1-Phenyl-N-(2,3,6-trifluoro-4-((3-(2-((5-(1-fluoroethyl)piperidin-3-yl)amino)pyrimidin-4-yl)pyridin-2-yl)oxy)phenyl)methanesulfonamide hydrochloride] was tested. Which IC50 did it give?
**A.** 19 nM

**Q.** With N#Cc1c(NS(=O)(=O)Cc2ccccc2)ccc(Oc2ncccc2-c2ccnc(N[C@H]3CCCNC3)n2)c1F [Compound 163, (S)-N-(2-cyano-3-fluoro-4-((3-(2-(piperidin-3-ylamino)pyrimidin-4-yl)pyridin-2-yl)oxy)phenyl)-1-phenylmethanesulfonamide hydrochloride] as the compound, how does the IC50 read?
**A.** 6.6 nM

**Q.** How did the IC50 turn out when O=S(=O)(Cc1cccnc1)Nc1ccc(Oc2ncccc2-c2ccnc(N[C@H]3CCCNC3)n2)c(F)c1F [Compound 233, (S)-N-(2,3-difluoro-4-(3-(2-(piperidin-3-ylamino)pyrimidin-4-yl)pyridin-2-yloxy)phenyl)-1-(pyridin-3-yl)methanesulfonamide] was run?
**A.** 9 nM

**Q.** With CN(C)C1CCC(Nc2nccc(-c3cccnc3Oc3cc(F)c(NS(=O)(=O)Cc4ccccc4)c(F)c3F)n2)CC1F (single isomer, unassigned) [Compound 308, N-(4-((3-(2-((4-(Dimethylamino)-3-fluorocyclohexyl)amino)pyrimidin-4-yl)pyridin-2-yl)oxy)-2,3,6-trifluorophenyl)-1-phenylmethanesulfonamide] as the compound, how does the IC50 read?
**A.** 83 nM

**Q.** With O=C(Nc1ccc(Oc2ncccc2-c2ccnc(N[C@H]3CCCNC3)n2)c(F)c1F)C1CC1 [Compound 147, (S)—N-(2,3-Difluoro-4-(3-(2-(piperidin-3-ylamino)pyrimidin-4-yl)pyridin-2-yloxy)phenyl)cyclopropanecarboxamide hydrochloride] as the compound, how does the IC50 read?
**A.** 210 nM

**Q.** O=S(=O)(Nc1c(F)cc(Oc2ncccc2-c2ccnc(N[C@@H]3CNC[C@@H](F)C3)n2)c(F)c1F)C1CCCCC1 [Compound 368, N-(2,3,6-Trifluoro-4-((3-(2-(((3S,5S)-5-fluoropiperidin-3-yl)amino)pyrimidin-4-yl)pyridin-2-yl)oxy)phenyl)cyclohexanesulfonamide] was tested. Which IC50 did it give?
**A.** 0.2 nM

**Q.** Cc1cc(NS(=O)(=O)Cc2ccccc2)ccc1Oc1ncccc1-c1ccnc(N[C@H]2CCCNC2)n1 [Compound 157, (S)-N-(3-methyl-4-((3-(2-(piperidin-3-ylamino)pyrimidin-4-yl)pyridin-2-yl)oxy)phenyl)-1-phenylmethanesulfonamide] was tested. Which IC50 did it give?
**A.** 29 nM

**Q.** For O=S(=O)(Cc1ccccc1)Nc1cccc(Oc2ncccc2-c2ccnc(N[C@H]3CCCNC3)n2)c1F [Compound 142, (S)—N-(2-Fluoro-3-((3-(2-(piperidin-3-ylamino)pyrimidin-4-yl)pyridin-2-yl)oxy)phenyl)-1-phenylmethanesulfonamide hydrochloride], which IC50 is on record?
**A.** 16 nM

**Q.** Which IC50 does the source give for O=S(=O)(Cc1ccc(F)cc1F)Nc1c(F)cc(Oc2ncccc2-c2ccnc(N[C@@H]3CNC[C@H](CF)C3)n2)c(F)c1F [Compound 320, 1-(2,4-Difluorophenyl)-N-(2,3,6-trifluoro-4-((3-(2-(((3S,5R)-5-(fluoromethyl)piperidin-3-yl)amino)pyrimidin-4-yl)pyridin-2-yl)oxy)phenyl)methanesulfonamide] here?
**A.** 35 nM

**Q.** Which IC50 does the source give for CC(C)(C)CCS(=O)(=O)Nc1ccc(Oc2ncccc2-c2ccnc(N[C@H]3CCCNC3)n2)c(F)c1F [Compound 226, (S)-N-(2,3-difluoro-4-((3-(2-(piperidin-3-ylamino)pyrimidin-4-yl)pyridin-2-yl)oxy)phenyl)-3,3-dimethylbutane-1-sulfonamide] here?
**A.** 18 nM

**Q.** How did the IC50 turn out when Cc1cc(NS(=O)(=O)c2ccccc2Cl)cc(F)c1Oc1ncccc1-c1ccnc(N[C@H]2CCCNC2)n1 [Compound 114, (S)-2-chloro-N-(3-fluoro-5-methyl-4-((3-(2-(piperidin-3-ylamino)pyrimidin-4-yl)pyridin-2-yl)oxy)phenyl)benzenesulfonamide hydrochloride] was run?
**A.** 7.3 nM

**Q.** Which IC50 does the source give for Cc1cc(Oc2ncccc2-c2ccnc(N[C@@H]3CNC[C@@H](F)C3)n2)c(F)c(F)c1NS(=O)(=O)Cc1ccccc1 [Compound 280, N-(2,3-Difluoro-4-((3-(2-(((3S,5S)-5-fluoropiperidin-3-yl)amino)pyrimidin-4-yl)pyridin-2-yl)oxy)-6-methylphenyl)-1-phenylmethanesulfonamide] here?
**A.** 0.31 nM

**Q.** With O=S(=O)(Cc1ccccc1)Nc1cccc(Oc2ncccc2-c2ccnc(N[C@H]3CCCNC3)n2)c1 [Compound 133, (S)-1-Phenyl-N-(3-((3-(2-(piperidin-3-ylamino)pyrimidin-4-yl)pyridin-2-yl)oxy)phenyl)methanesulfonamide hydrochloride] as the compound, how does the IC50 read?
**A.** 120 nM

**Q.** How did the IC50 turn out when N#Cc1ccc(CS(=O)(=O)Nc2c(F)cc(Oc3ncccc3-c3ccnc(N[C@@H]4CNC[C@H](CF)C4)n3)c(F)c2F)cc1 [Compound 321, 1-(4-Cyanophenyl)-N-(2,3,6-trifluoro-4-((3-(2-(((3S,5R)-5-(fluoromethyl)piperidin-3-yl)amino)pyrimidin-4-yl)pyridin-2-yl)oxy)phenyl)methanesulfonamide] was run?
**A.** 0.65 nM

**Q.** Which IC50 does the source give for CC(F)C1CNCC(Nc2nccc(-c3cccnc3Oc3cc(F)c(NS(=O)(=O)Cc4ccccc4)c(F)c3F)n2)C1 (single isomer, unassigned) [Compound 346, 1-Phenyl-N-(2,3,6-trifluoro-4-((3-(2-((5-(1-fluoroethyl)piperidin-3-yl)amino)pyrimidin-4-yl)pyridin-2-yl)oxy)phenyl)methanesulfonamide] here?
**A.** 72 nM

**Q.** Which IC50 does the source give for O=S(=O)(Nc1ccc(Oc2ncccc2-c2ccnc(N[C@H]3CCCNC3)n2)c(F)c1F)c1ccc(OC(F)(F)F)cc1 [Compound 223, (S)-N-(2,3-difluoro-4-((3-(2-(piperidin-3-ylamino)pyrimidin-4-yl)pyridin-2-yl)oxy)phenyl)-4-(trifluoromethoxy)benzenesulfonamide] here?
**A.** 26 nM

**Q.** How did the IC50 turn out when OC(CNc1cccc(Oc2ncccc2-c2ccnc(N[C@H]3CCCNC3)n2)c1F)C(F)(F)F (single isomer, unassigned) [Compound 201] was run?
**A.** 210 nM

**Q.** For O=S(=O)(Cc1ccccn1)Nc1ccc(Oc2ncccc2-c2ccnc(N[C@H]3CCCNC3)n2)c(F)c1F [Compound 238, (S)—N-(2,3-Difluoro-4-(3-(2-(piperidin-3-ylamino)pyrimidin-4-yl)pyridin-2-yloxy)phenyl)-1-(pyridin-2-yl)methanesulfonamide], which IC50 is on record?
**A.** 14 nM

**Q.** For COCC1CNCC(Nc2nccc(-c3cccnc3Oc3cc(F)c(NS(=O)(=O)Cc4ccccc4)c(F)c3F)n2)C1 (single isomer, unassigned) [Compound 329, 1-Phenyl-N-(2,3,6-trifluoro-4-((3-(2-((5-(methoxymethyl)piperidin-3-yl)amino)pyrimidin-4-yl)pyridin-2-yl)oxy)phenyl)methanesulfonamide], which IC50 is on record?
**A.** 12 nM

**Q.** Which IC50 does the source give for C[C@@]1(F)CNC[C@@H](Nc2nccc(-c3cccnc3Oc3cc(F)c(NS(=O)(=O)CC4CCC4)c(F)c3F)n2)C1 [Compound 202, 1-cyclobutyl-N-(2,3,6-trifluoro-4-((3-(2-(((3S,5S)-5-fluoro-5-methylpiperidin-3-yl)amino)pyrimidin-4-yl)pyridin-2-yl)oxy)phenyl)methanesulfonamide] here?
**A.** 4.4 nM
